Experimental data: patent publication US6653300B2, “Pyrazole compounds useful as protein kinase inhibitors” (Vertex Pharmaceuticals Incorporated, priority 2000, dated 2003)

Assays:
Aurora-2 = biological target: T1, Aurora-2 (Homo sapiens, UniProt O14965); assay: Ki determination for the inhibition of Aurora-2 (coupled enzyme assay); type: biochemical; conditions: 70 nM Aurora-2, 30° C.
T1 sequence (O14965 1-403): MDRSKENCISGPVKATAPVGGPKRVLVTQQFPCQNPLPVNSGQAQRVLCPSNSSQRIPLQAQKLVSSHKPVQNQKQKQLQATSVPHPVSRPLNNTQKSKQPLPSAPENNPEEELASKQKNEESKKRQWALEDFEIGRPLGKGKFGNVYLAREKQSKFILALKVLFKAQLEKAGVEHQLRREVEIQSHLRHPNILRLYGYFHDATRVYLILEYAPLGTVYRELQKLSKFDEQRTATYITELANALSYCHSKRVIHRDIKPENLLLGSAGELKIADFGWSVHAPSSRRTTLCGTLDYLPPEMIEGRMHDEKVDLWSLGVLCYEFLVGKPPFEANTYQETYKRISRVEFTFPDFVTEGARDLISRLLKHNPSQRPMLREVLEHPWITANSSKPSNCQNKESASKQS
Experimental: Compounds were screened in the following manner for their ability to inhibit Aurora-2 using a standard coupled enzyme assay (Fox et al (1998) Protein Sci 7, 2249).
To an assay stock buffer solution containing 0.1M HEPES 7.5, 10 mM MgCl2, 1 mM DTT, 25 mM NaCl, 2.5 mM phosphoenolpyruvate, […], 30 mg/ml pyruvate kinase, 10 mg/ml lactate dehydrogenase, […], and 800 μM peptide (LRRASLG, American Peptide, Sunnyvale, Calif.) was added a DMSO solution of a compound of the present invention to a final concentration of 30 μM. The resulting mixture was incubated at 30° C. for 10 min. The reaction was initiated by the addition of 10 μL of Aurora-2 stock solution to give a final concentration of 70 nM in the assay. The rates of reaction were obtained by monitoring absorbance at 340 nm over a 5 minute read time at 30° C. using a BioRad Ultramark plate reader (Hercules, Calif.). The Ki values were determined from the rate data as a function of inhibitor concentration.

GSK-3β (AA 1-420) = biological target: T2, GSK-3β (AA 1-420) (Homo sapiens, UniProt P49841); assay: Ki determination for the inhibition of GSK-3 (coupled enzyme system); type: biochemical; conditions: 20 μM ATP, 20 nM GSK-3β, 30° C.
T2 construct: GSK-3β (AA 1-420)
T2 sequence (P49841 whole entry, the tested form may be a part): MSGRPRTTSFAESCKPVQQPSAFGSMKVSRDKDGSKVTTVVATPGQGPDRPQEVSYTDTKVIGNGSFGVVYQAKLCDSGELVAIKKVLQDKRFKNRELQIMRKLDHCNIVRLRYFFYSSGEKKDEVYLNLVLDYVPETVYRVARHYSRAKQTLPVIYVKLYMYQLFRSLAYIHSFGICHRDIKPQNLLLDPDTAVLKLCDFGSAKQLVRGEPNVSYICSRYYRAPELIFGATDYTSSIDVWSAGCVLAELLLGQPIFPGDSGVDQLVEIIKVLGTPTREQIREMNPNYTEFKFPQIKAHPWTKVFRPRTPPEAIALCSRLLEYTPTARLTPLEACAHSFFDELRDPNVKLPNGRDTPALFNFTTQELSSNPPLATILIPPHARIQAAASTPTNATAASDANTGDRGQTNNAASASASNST
Experimental: Compounds were screened for their ability to inhibit GSK-3β (AA 1-420) activity using a standard coupled enzyme system (Fox et al. (1998) Protein Sci. 7, 2249). Reactions were carried out in a solution containing 100 mM HEPES (pH 7.5), 10 mM MgCl2, 25 mM NaCl, 300 μM NADH, 1 mM DTT and 1.5% DMSO. Final substrate concentrations in the assay were 20 μM ATP (Sigma Chemicals, St Louis, Mo.) and 300 μM peptide (HSSPHQS (PO3H2) EDEEE, American Peptide, Sunnyvale, Calif.). Reactions were carried out at 30° C. and 20 nM GSK-3β. Final concentrations of the components of the coupled enzyme system were 2.5 mM phosphoenolpyruvate, 300 μM NADH, 30 μg/ml pyruvate kinase and 10 μg/ml lactate dehydrogenase.
An assay stock buffer solution was prepared containing all of the reagents listed above with the exception of ATP and the test compound of interest. The assay stock buffer solution (175 μl) was incubated in a 96 well plate with 5 μl of the test compound of interest at final concentrations spanning 0.002 μM to 30 μM at 30° C. for 10 min. […] The reaction was initiated by the addition of 20 μl of ATP (final concentration 20 μM). Rates of reaction were obtained using a Molecular Devices Spectramax plate reader (Sunnyvale, Calif.) over 10 min at 30° C. The Ki values were determined from the rate data as a function of inhibitor concentration.

SMILES | Ki (Aurora-2) [nM] | Ki (GSK-3β (AA 1-420)) [nM] | melting point [°C]
c1ccc(-c2cc(Nc3cc(C4CC4)[nH]n3)nc(Oc3ccc4ccccc4c3)n2)cc1 [IIIb-1] | 100 to 1000 |  | 
COc1cccc(Nc2nc(Nc3cc(C)[nH]n3)c3ccccc3n2)c1 [IIc-56, [2-(3-Methoxyphenylamino)-quinazolin-4-yl]-(5-methyl-2H-pyrazol-3-yl)-amine] | < 100 | 100 to 1000 | 
CC(=O)Nc1ccc(Sc2nc(Nc3cc(C)[nH]n3)c3ccc(NO)cc3n2)cc1 [IIa-56, [2-(4-Acetamido-phenylsulfanyl)-7-hydroxyaminoquinazolin-4-yl]-(5-methyl-2H-pyrazol-3-yl)-amine] | < 100 |  | 
Cc1cc(Nc2nc(Sc3ccc(NC(=O)CC(C)C)cc3)nc3ccccc23)n[nH]1 [IIa-57, [2-(4-Isobutanecarbonylamino-phenylsulfanyl)-quinazolin-4-yl]-(5-methyl-2H-pyrazol-3-yl)-amine] | < 100 |  | 281 to 282
c1ccc2cc(Oc3nc(Nc4cc(C5CC5)[nH]n4)cc(N4CCOCC4)n3)ccc2c1 [IIIb-7] | 100 to 1000 | 100 to 1000 | 
c1ccc(CCNc2nc(Nc3cc(C4CC4)[nH]n3)c3ccccc3n2)cc1 [IIc-28, (5-Cyclopropyl-2H-pyrazol-3-yl)-(2-phenetylamino-quinazolin-4-yl)-amine] | < 100 | 100 to 1000 | 
CC(=O)Nc1ccc(Sc2nc(Nc3cc(C)[nH]n3)c3ccc(OCCCN(C)C)cc3n2)cc1 [IIa-75, [2-(4-Acetamidophenylsulfanyl)-7-(3-dimethylamino-propoxy)-quinazolin-4-yl]-(5-methyl-2H-pyrazol-3-yl)-amine] | < 100 |  | 249 to 250
COc1ccc(Nc2nc(Nc3cc(C)[nH]n3)c3ccccc3n2)cc1-c1ccccc1 [IIc-58, [2-(2-Methoxybiphenyl-5-ylamino)-quinazolin-4-yl]-(5-methyl-2H-pyrazol-3-yl)-amine] | < 100 | 1000 to 7000 | 
FC(F)(F)c1ccccc1Nc1nc(Nc2n[nH]c3ccccc23)c2ccccc2n1 [IIc-76, (1H-Indazol-3-yl)-[2-(2-trifluoromethylphenylamino)-quinazolin-4-yl]-amine] | 1000 to 10000 | 100 to 1000 | 
CC(=O)Nc1ccc(Sc2nc(Nc3cc(C)[nH]n3)c3ccc([N+](=O)[O-])cc3n2)cc1 [IIa-53, [2-(4-Acetamido-phenylsulfanyl)-7-nitroquinazolin-4-yl]-(5-methyl-2H-pyrazol-3-yl)-amine] | < 100 |  | 
Cc1cc(Nc2cc(-c3ccccc3)nc(Oc3ccc(NC(=O)C4CC4)cc3)n2)n[nH]1 [IIIb-16] | 100 to 1000 | 100 to 1000 | 
FC(F)(F)c1cccc(Nc2nc(Nc3n[nH]c4ccccc34)c3ccccc3n2)c1 [IIc-71, (1H-Indazol-3-yl)-[2-(3-trifluoromethylphenylamino)-quinazolin-4-yl]-amine] | 1000 to 10000 | 1000 to 7000 | 
CCc1cc(Nc2cc(C)[nH]n2)nc(C(C)(C)c2ccccc2)n1 [IIId-20] | 100 to 1000 | < 100 | 
COc1nc(Nc2cc(C)[nH]n2)cc(N2CCN(C)CC2)n1 [IIIb-14] | 1000 to 10000 | < 100 | 

Other lines, results leading:

Ki (Aurora-2) [nM] | Ki (GSK-3β (AA 1-420)) [nM] | melting point [°C] | SMILES
1000 to 10000 | 1000 to 7000 |  | CCc1cc(Nc2cc(C)[nH]n2)nc(Nc2nc3ccccc3[nH]2)n1 [IIIc-10, [2-(Benzimidazol-2-ylamino-)6-ethyl-pyrimidin-4-yl]-(5-methyl-2H-pyrazol-3-yl)-amine]
< 100 | < 100 |  | CCc1cc(Nc2cc(C)[nH]n2)nc(Nc2ccc(Cl)cc2)n1 [IIIc-12, [2-(4-Chlorophenyl)amino-6-ethyl-pyrimidin-4-yl]-(5-methyl-2H-pyrazol-3-yl)-amine]
< 100 | < 100 |  | Cc1cc(Nc2nc(Nc3cccc(Cl)c3)nc3ccccc23)n[nH]1 [IIc-11, [2-(3-Chlorophenylamino)-quinazolin-4-yl]-(5-methyl-2H-pyrazol-3-yl)-amine]
< 100 |  | 277 to 278 | COc1cccc(Oc2nc(Nc3cc(C)[nH]n3)c3ccccc3n2)c1 [IIb-6, [2-(3-Methoxyphenoxy)-quinazolin-4-yl]-(5-methyl-2H-pyrazol-3-yl)-amine]
< 100 | < 100 |  | c1ccc(Nc2nc(Nc3cc(-c4ccco4)[nH]n3)cc(-c3ccccc3)n2)cc1 [IIIc-15, [5-(Furan-2-yl)-2H-pyrazol-3-yl]-(6-phenyl-2-phenylamino-pyrimidin-4-yl)-amine]
100 to 1000 | < 100 |  | Cc1cc(Nc2cc(-c3ccco3)[nH]n2)nc(Nc2ccc(Cl)cc2)n1 [IIIc-9, [2-(4-Chlorophenyl)amino-6-methyl-pyrimidin-4-yl]-[5-(furan-2-yl)-2H-pyrazol-3-yl]-amine]
< 100 |  | 153 | c1ccc(-c2cccc(Nc3nc(Nc4cc(C5CC5)[nH]n4)c4ccccc4n3)c2)cc1 [IIc-46, [2-(Biphenyl-3-ylamino)-quinazolin-4-yl]-(5-cyclopropyl-2H-pyrazol-3-yl)-amine]
< 100 |  | 170 to 172 | CC(=O)Nc1ccc(Sc2nc(Nc3cc(C)[nH]n3)c3cccc(OCCCN(C)C)c3n2)cc1 [IIa-73, [2-(4-Acetamidophenylsulfanyl)-8-(3-dimethylamino-propoxy)-quinazolin-4-yl]-(5-methyl-2H-pyrazol-3-yl)-amine]
1000 to 10000 |  |  | CN1CCN(c2cc(Nc3cc(C4CC4)[nH]n3)nc(Oc3ccc4ccccc4c3)n2)CC1 [IIIb-8]
100 to 1000 | < 100 |  | Cc1cc(Nc2cc(-c3ccccc3)[nH]n2)nc(Nc2ccc(Cl)cc2)n1 [IIIc-11, [2-(4-Chlorophenyl)amino-6-methyl-pyrimidin-4-yl]-(5-phenyl-2H-pyrazol-3-yl)-amine]
100 to 1000 |  |  | COC(=O)c1cccc(Oc2nc(Nc3cc(C4CC4)[nH]n3)cc(-c3ccccc3)n2)c1 [IIIb-2]
1000 to 10000 | 100 to 1000 |  | Clc1ccccc1Nc1nc(Nc2n[nH]c3ccccc23)c2ccccc2n1 [IIc-75, [2-(2-Chloro-phenyl)-amino-quinazolin-4-yl]-(1H-indazol-3-yl)-amine]
100 to 1000 | 100 to 1000 |  | Cc1cc(Nc2nc(COc3ccc(Cl)cc3)nc3c2CCCC3)n[nH]1 [IId-6, [2-(4-Chlorophenoxymethyl)-5,6,7,8-tetrahydro-quinazolin-4-yl]-(5-methyl-2H-pyrazol-3-yl)-amine]
1000 to 10000 |  |  | Cc1cc(Nc2cc(-c3c(C)cccc3C)nc(Oc3ccc4ccccc4c3)n2)n[nH]1 [IIIb-9]
100 to 1000 |  |  | CSc1nc(Nc2cc(C)[nH]n2)cc(N2CCN(C)CC2)n1 [IIIa-14, [6-(4-Methylpiperazin-1-yl)-2-methylsulfanyl-pyrimidin-4-yl]-(5-methyl-2H-pyrazol-3-yl)-amine]
100 to 1000 | 100 to 1000 |  | CCC(=O)Nc1ccc(Oc2nc(Nc3cc(C)[nH]n3)cc(-c3ccccc3)n2)cc1 [IIIb-15]
 | 100 to 1000 | 224 to 225 | Cc1cc(Nc2cc(N3CCOCC3)nc(SCc3cccc(Cl)c3)n2)n[nH]1 [IIIa-26, [2-(3-Chloro-benzylsulfanyl)-6-morpholin-4-yl-pyrimidin-4-yl]-(5-methyl-2H-pyrazol-3-yl)-amine]
< 100 | 1000 to 7000 |  | COc1ccc(Sc2nc(Nc3cc(C4CC4)[nH]n3)c3ccccc3n2)cc1OC [IIa-25, (5-Cyclopropyl-2H-pyrazol-3-yl)-[2-(3,4-dimethoxyphenylsulfanyl)-quinazolin-4-yl]-amine]
1000 to 10000 | 100 to 1000 |  | Cc1cc(Nc2cc(N3CCOCC3)nc(SCc3ccc4ccccc4c3)n2)n[nH]1 [IIIa-42, (5-Methyl-2H-pyrazol-3-yl)-[6-morpholin-4-yl-2-(naphthalene-2-ylmethylsulfanyl)-pyrimidin-4-yl]-amine]
